Laboratory results as given in EP4803094A2, “GLP-1/GIP DUAL, GLP-1/GCG DUAL AND GLP-1/GIP/GCG TRIPLE RECEPTOR AGONISTS” (Sun Pharmaceutical Industries Limited, priority 2023, dated 2024).
Marks after values point to notes of the source that are not given here.

Experiments:
[1] = system: Type 2 diabetes mouse (db/db) model; experiment: Efficacy study in db/db mice (blood glucose, body weight, food consumption); assay type: in vivo; conditions: 10 nM/kg s.c. single dose, mean (n=6)
Description: The effect of the compounds as described herein on blood glucose, food intake and body weight were studied in mice. This study was performed in Type 2 diabetes mouse (db/db) model. The animals were divided into 9 treatment groups (n=6): a diabetic control group, Compound 12 (10 nM/kg), Compound 13 (10 nM/kg), Compound 26 (10 nM/kg), Compound 14 (10 nM/kg), Compound 15 (10 nM/kg), Compound 21 (10 nM/kg), Compound 22 (10 nM/kg), and Tirzepatide (10 nM/kg). Baseline blood glucose was measured from all the animals. All the animals were administered with test item subcutaneously. Blood glucose was measured at 4 hr, 8 hr, 12 hr, 24 hr, 48 hr, 72 hr, and 96 hr post treatment. Delta blood glucose (mM) was calculated. Body weight changes and cumulative food consumption were measured at 48 hr and 96 hr post treatment. Table 3. Effect on Blood Glucose

GCGR = GCGR (Homo sapiens, UniProt P47871); experiment: Hit Hunter cAMP assay in cells stably expressing GCGR; assay type: cell-based; conditions: values in nM, read-out: EC50 value GCG
Chain of GCGR (P47871 26-477, species assumed): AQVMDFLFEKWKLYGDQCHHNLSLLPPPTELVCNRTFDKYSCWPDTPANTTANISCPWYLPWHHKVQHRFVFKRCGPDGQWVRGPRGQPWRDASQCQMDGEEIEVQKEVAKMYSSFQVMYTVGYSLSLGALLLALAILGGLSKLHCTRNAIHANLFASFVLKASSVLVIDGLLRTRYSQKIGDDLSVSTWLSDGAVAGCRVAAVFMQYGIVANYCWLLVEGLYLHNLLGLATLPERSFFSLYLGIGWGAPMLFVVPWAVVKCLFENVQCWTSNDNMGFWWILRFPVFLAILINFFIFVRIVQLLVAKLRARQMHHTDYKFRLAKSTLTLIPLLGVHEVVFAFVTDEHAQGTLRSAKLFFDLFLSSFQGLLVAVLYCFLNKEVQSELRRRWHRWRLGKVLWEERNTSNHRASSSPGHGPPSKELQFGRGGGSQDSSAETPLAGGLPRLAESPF
Excerpt: (§1) Stably expressing GLP-1R, GIPR or GCGR cell lines were used to determine in-vitro potency of the compounds as described herein. Signaling by the GLP-1R, GIP-R, and GCG-R involves activation of adenylate cyclase and cAMP production. Hit Hunter® cAMP assays monitor the activation of GLP-1R, GIPR or GCGR via Gi and Gs secondary messenger signaling using a technology developed by DiscoverX which is called Enzyme Fragment Complementation (EFC) with β-galactosidase (β-Gal) as the functional reporter. The enzyme is split into two complementary portions: EA for Enzyme Acceptor and ED for Enzyme Donor. ED is fused to cAMP and in the assay competes with cAMP generated by cells for binding to a cAMP-specific antibody. Active β-Gal is formed by complementation of exogenous EA to any unbound ED cAMP. Active enzyme can then convert a chemiluminescent substrate, generating an output signal detectable on a standard microplate reader. Three different assays were performed using cells expressing either of the three receptors. cAMP Hunter cell lines were expanded from freezer stocks according to standard procedures. […] Microplates were read following signal generation with a PerkinElmer EnvisionTM instrument for chemiluminescent signal detection. […] Four parametric logistic curve was generated and EC50 was determined. […]

GLP-1R = GLP-1R (Homo sapiens, UniProt P43220); experiment: Hit Hunter cAMP assay in cells stably expressing GLP-1R; assay type: cell-based; conditions: GLP-1R-expressing cells, values in nM
Chain of GLP-1R (P43220 24-463, species assumed): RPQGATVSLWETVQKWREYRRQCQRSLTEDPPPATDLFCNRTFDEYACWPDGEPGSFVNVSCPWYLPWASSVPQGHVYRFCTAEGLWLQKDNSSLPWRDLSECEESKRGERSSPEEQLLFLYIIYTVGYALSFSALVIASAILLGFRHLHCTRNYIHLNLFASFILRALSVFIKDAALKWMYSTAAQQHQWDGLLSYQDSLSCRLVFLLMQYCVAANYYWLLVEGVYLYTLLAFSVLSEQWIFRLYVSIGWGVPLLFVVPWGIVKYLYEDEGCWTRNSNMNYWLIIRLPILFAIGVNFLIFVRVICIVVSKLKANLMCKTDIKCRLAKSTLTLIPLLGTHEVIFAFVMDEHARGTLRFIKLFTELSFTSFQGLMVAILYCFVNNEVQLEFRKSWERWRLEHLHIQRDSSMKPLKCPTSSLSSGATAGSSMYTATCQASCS
Excerpt: as §1

GIPR = molecular target: T1, GIPR (Homo sapiens, UniProt P48546); experiment: Hit Hunter cAMP assay in cells stably expressing GIPR; assay type: cell-based; conditions: values in nM, read-out: EC50 value GIP
T1 sequence (P48546 22-466): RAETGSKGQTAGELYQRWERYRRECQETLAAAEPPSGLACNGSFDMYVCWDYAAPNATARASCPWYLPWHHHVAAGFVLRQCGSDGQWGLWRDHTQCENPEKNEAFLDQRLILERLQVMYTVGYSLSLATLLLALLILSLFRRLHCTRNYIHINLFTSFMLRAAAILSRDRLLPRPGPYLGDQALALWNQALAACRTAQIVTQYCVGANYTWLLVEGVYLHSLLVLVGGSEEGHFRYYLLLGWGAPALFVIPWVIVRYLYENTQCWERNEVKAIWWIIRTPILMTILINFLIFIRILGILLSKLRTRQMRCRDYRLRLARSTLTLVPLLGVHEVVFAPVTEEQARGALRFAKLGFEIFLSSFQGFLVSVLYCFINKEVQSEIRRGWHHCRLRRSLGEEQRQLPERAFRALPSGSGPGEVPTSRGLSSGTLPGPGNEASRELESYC
Excerpt: as §1

## CC[C@H](C)[C@H](NC(=O)[C@H](Cc1ccccc1)NC(=O)[C@H](C)NC(=O)C(C)(C)NC(=O)[C@H](CCC(N)=O)NC(=O)[C@H](C)NC(=O)[C@H](CCCCNC(=O)COCCOCCNC(=O)C(C)(C)NC(=O)CC[C@H](NC(=O)CCCCCCCCCCCCCCCCCCC(=O)O)C(=O)O)NC(=O)[C@H](CCCCN)NC(=O)[C@H](CC(=O)O)NC(=O)[C@H](CC(C)C)NC(=O)[C@](C)(CC(C)C)NC(=O)[C@@H](NC(=O)[C@H](CO)NC(=O)[C@H](Cc1ccc(O)cc1)NC(=O)[C@H](CC(=O)O)NC(=O)[C@H](CO)NC(=O)[C@@H](NC(=O)[C@H](Cc1ccccc1)NC(=O)[C@@H](NC(=O)CNC(=O)[C@H](CCC(N)=O)NC(=O)C(C)(C)NC(=O)[C@@H](N)Cc1ccc(O)cc1)[C@@H](C)O)[C@@H](C)O)[C@@H](C)CC)C(=O)N[C@@H](CCC(=O)O)C(=O)N[C@@H](Cc1ccc(O)cc1)C(=O)N[C@@H](CC(C)C)C(=O)N[C@@H](CC(C)C)C(=O)N[C@@H](CCC(=O)O)C(=O)NCC(=O)NCC(=O)N1CCC[C@H]1C(=O)N[C@@H](CO)C(=O)N[C@@H](CO)C(=O)NCC(=O)N[C@@H](C)C(=O)N1CCC[C@H]1C(=O)N1CCC[C@H]1C(=O)N1CCC[C@H]1C(=O)N[C@@H](CO)C(N)=O [Compound 13]
[1]; 0-48 hr
  Cumulative Food Consumption (g) 0-48 hr: 4.1*** g
[1]; 0-96 hr
  Cumulative Food Consumption (g) 0-96 hr: 11.2*** g
[1]; 4 hr post treatment
  Delta Blood Glucose (mM): -7.4* mM
[1]; 8 hr post treatment
  Delta Blood Glucose: -5.7 mM
[1]; 12 hr post treatment
  Delta Blood Glucose (mM): -9.4** mM
[1]; 24 hr post treatment
  Delta Blood Glucose (mM): -14.4*** mM
[1]; 48 hr post treatment
  Delta Blood Glucose (mM): -13.9*** mM
[1]; 48 hr
  Body Weight Change (%) 48 hr: -10.3*** %
[1]; 72 hr post treatment
  Delta Blood Glucose (mM): -12.1*** mM
[1]; 96 hr post treatment
  Delta Blood Glucose: -5.6 mM
[1]; 96 hr
  Body Weight Change (%) 96 hr: -6.3*** %
GCGR
  EC50: > 1.8 nM
GLP-1R
  EC50: > 2.4 nM
GIPR
  EC50: > 1.5 nM
